The text below walks through data of US10561666B2, “Amido compounds as RORγt modulators and uses thereof” (New York University, priority 2010, dated 2020).

Assay [1] has as its system Human memory (CD45RO+CD45RA−CD3+CD4+CCR6+CD161+) cells. Kind of assay: Human memory Th17 cell maintenance (IL-17a / IFN-γ staining). The class given is cell-based. The settings on record: 3 uM, 6 days. The text has this:
Intracellular staining for IFN-γ or IL-17a in memory CD4^+T cells from multiple donors, assessed on day 6. Each symbol (n=11 or 9, respectively) indicates a separate donor.

Assay [2] concerns human Th17 cell differentiation. Kind of assay: Human Th17 cell differentiation of naive cord blood T cells. As to conditions: IL2, IL23, IL1β, TGFβ, six days (FIG. 6B). It is filed as cell-based. Here is the method:
Flow cytometry of IL-17a and IFN-γ production by cord blood naive CD4^+T cells (CD45RO^−CD45RA^+CD3^+CD4^+CD25^−HLA-DR^−)transduced with RORαd-IRES-GFP or RORγt-IRES-GFP on day 1 and analyzed on day 6. GFP expressing cells were gated for analysis. […] Flow cytometry of IL-17a and IFN-γ production by human naive cord blood T cells (CD45RO^−D45RA^+CD3^+CD4^+CD25^−HLA-DR^−), which were cultured for six days in presence of IL2, IL23 and IL1β, and with various concentrations of TGFβ (ng/ml). DMSO or N2 was added 16 hours after the cytokine addition.
The results depict flow cytometry of IL-17a and IFN-γ production by cord blood naive CD4^+ T cells (CD45RO^−CD45RA^+CD3^+CD4^+CD25^−HLA-DR^−)transduced with human RORαd-IRES-GFP or human RORγt-IRES-GFP on day 1 and analyzed on day 6. GFP expressing cells were gated for analysis. […] The results depict flow cytometry of IL-17a and IFN-γ production by human naive cord blood T cells (CD45RO^−D45RA^+CD3^+CD4^+CD25^−HLA-DR^−), which were cultured for six days in the presence of IL2, IL23 and ILβ, and with various concentrations of TGFβ (ng/mL). […] IL-17a-APC (eBio64CAP17 eBioscience) and IFN-γ-PECy7 (45.B3 eBioscience) were used for analysis.

Another assay deals with RORγt (Mus musculus, UniProt P51450, T352K). Put plainly: RORγt S2 cell Gal4-luciferase reporter assay. As to conditions: for Emax: read-out: Efficacy (%). (A reporter such as luciferase makes a cellular process visible.)
Chain of RORγt (P51450 with tags, fused parts or gaps T352K): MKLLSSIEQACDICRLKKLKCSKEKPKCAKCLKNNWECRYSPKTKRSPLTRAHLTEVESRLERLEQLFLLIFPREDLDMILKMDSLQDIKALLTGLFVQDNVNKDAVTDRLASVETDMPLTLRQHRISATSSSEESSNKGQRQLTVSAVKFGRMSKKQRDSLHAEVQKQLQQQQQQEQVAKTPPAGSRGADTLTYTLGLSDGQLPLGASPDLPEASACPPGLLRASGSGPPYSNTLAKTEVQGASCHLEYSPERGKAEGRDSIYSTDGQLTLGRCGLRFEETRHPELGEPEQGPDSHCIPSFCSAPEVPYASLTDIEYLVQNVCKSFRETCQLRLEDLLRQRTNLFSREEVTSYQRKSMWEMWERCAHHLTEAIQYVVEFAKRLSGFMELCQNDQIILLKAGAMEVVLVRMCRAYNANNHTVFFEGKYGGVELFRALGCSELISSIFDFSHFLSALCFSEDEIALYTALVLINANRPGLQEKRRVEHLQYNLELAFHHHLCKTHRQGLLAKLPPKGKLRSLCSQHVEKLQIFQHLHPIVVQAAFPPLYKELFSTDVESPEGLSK
Another assay deals with mouse Th17 polarization. Put plainly: Mouse Th17 polarization assay (IL-17a producing cells). As to conditions: for IC50: naive mouse CD4 T cells, TGFβ and IL6, compounds added Day 1, analyzed Day 4, IL-17a producing cells, read-out: Th 17 IC50. The class given is cell-based. Here is the method: Effects of compound derivatives at various concentrations on mouse Th17 polarization. Percentage of DMSO treated IL-17a producing cells was set at 100. Naive mouse CD4 T cells (CD25^−, CD62L^+, and CD44^int-high) were sorted and cultured with CD3/CD28 stimulatory antibodies in the presence of TGFβ (0.1 ng/ml) and IL6 (20 ng/ml). Compounds were added on Day 1 and cells were analyzed on Day 4. For intracellular cytokine staining, cells were incubated for 5 h with phorbol ester (50 ng/ml; Sigma), ionomycin (500 ng/ml; Sigma) and GolgiStop (BD). When needed, surfaces were stained by incubation for 15 min on ice with PECy7-conjugated CD4 (BD Biosciences). The Cytofix/Cytoperm buffer set (BD) was used for intracellular staining. Cells were fixed and made permeable for 30 min on ice and were stained for 30 min on ice in permeabilization buffer with Alexa647-conjugated anti-IL17 (eBioscience) and PE-conjugated anti-IFNg (eBioscience). An LSR II (BD Biosciences) and FlowJo software (Tree Star) were used for flow cytometry. RORg IC50 value acquired from the S2 cell reporter assay is listed for comparison.
(§1) Naive CD4 T cells (CD25^−, CD62L^+, and CD44^int-high) were sorted and cultured with CD3/CD28 stimulatory antibodies in the presence of TGFβ (0.1 ng/ml) and IL6 (20 ng/ml). Compounds were added on Day 1 and cells were analyzed on Day 4. For intracellular cytokine staining, cells were incubated for 5 h with phorbol ester (50 ng/ml; Sigma), ionomycin (500 ng/ml; Sigma) and GolgiStop (BD). When needed, surfaces were stained by incubation for 15 min on ice with PECy7-conjugated CD4 (BD Biosciences). The Cytofix/Cytoperm buffer set (BD) or FoxP3 staining kit (eBioscience) were used for intracellular staining. Cells were fixed and made permeable for 30 min on ice and were stained for 30 min on ice in permeabilization buffer with Alexa647-conjugated anti-IL17 (eBioscience), PE-conjugated anti-IFNg (eBioscience), and/or PE-conjugated anti-FoxP3 (eBioscience). An LSR II (BD Biosciences) and FlowJo software (Tree Star) were used for flow cytometry.

Another assay relates to Th1 differentiation. Put plainly: Mouse Th1 differentiation counter-screen (IFNγ production). The class given is cell-based. As to conditions: 20 μM, naive CD4 T cells, IL12 and IL2 (FIG. 4). Here is the method:
as §1
For Th1 differentiation, IL12 (10 ng/ml) and IL2 (10 U) was added to naive CD4 T cell cultures instead of TGFβ and IL6.

Assay [3] addresses T1, recombinant human RORγ LBD (Homo sapiens, UniProt P51449).
T1 construct: recombinant human RORγ LBD was loaded with fluorescently-labeled 25-hydroxycholesterol
T1 sequence (P51449 269-508 limits assumed): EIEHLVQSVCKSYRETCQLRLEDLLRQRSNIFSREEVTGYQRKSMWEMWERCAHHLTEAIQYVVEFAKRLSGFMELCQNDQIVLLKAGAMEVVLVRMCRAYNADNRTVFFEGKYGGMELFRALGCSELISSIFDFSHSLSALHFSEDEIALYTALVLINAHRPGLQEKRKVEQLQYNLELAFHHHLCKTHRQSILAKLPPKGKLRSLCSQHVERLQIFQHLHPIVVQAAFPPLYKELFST
Kind of assay: In vitro competition assay, fluorescence polarization with labeled 25-hydroxycholesterol. The class given is binding. As to conditions: various concentrations. The text has this:
The presence of increasing concentrations of NCGC00166547 was correlated with displacement of the fluorescently-labeled 25-hydroxycholesterol from the LBD.
On the technique in general: Fluorescence polarisation rises when a labelled molecule tumbles more slowly, as on binding a larger partner.

The mark [4] stands for this setting: IC50(μM), Drosophila S2 cells, Gal4-RORγt luciferase reporter, 20 hr.
The mark [5] stands for this setting: S2 cell RORg IC50 μM, S2 cell reporter assay, listed for comparison.

The structures appear in SMILES notation.

Text for RORγt: Methods: The Drosophila S2 cell line was originally purchased from Invitrogen and was maintained in Schneider's medium supplemented with 10% heat-inactivated bovine fetal calf serum and antibiotics (Invitrogen). […] The resulting chimeric gene was subcloned into the copper inducible pMT/V5-His A vector (available from Invitrogen).
In order to generate stable cell lines, cells were co-transfected with pMT-G4DBD-RORγt, pMT-G4DBD-RORα, pMT-G4DBD-DHR3, or pMT-G4DBDVP16 and pHygro plasmids (Invitrogen) and screened for resistant colonies in the presence of hygromycin (0.3 mg/mL).
Methods: 600 G4DBD-RORγ/γt-luc reporter (#25) or G4DBD-VP16-luc reporter cells were distributed into each well of 1,536-well white bottom plates in 4 μl S2 cell culture volume containing hygromicin (300 μg/ml) and puromycin (2 μg/ml). […] After one-hour incubation, 1 μl of culture medium solution containing copper sulfate (to final 0.7 mM) and 10 μM RORγ/γt antagonists were added to each well. After 20-hour incubation at ambient temperature, 1.5 μl firefly luciferase detection mix was added and the luciferase activities were measured in 10 min. ViewLux luminometers were used for measuring luciferase signal.
Since their cognate DNA binding sites were not well characterized, the DNA binding domains (DBD) of RORγ/γt, RORα (mouse homolog for POPγ), and DHR3 (Drosophila orthologue for ROR family proteins) were replaced with the heterologous yeast GAL4 DBD. The transcriptionally active domain of general transcriptional activator VP16 was also fused with GAL4 DBD. The GAL4 fusion constructs were placed under the control of a copper inducible promoter, and stable S2 cell lines with genomic integration of these four reporter constructs were generated. The copper inducible promoter ensures tight regulation of GAL4-fusion protein expression and it allows small molecules to get into the cells prior to protein induction, thus increasing their effects on GAL4 reporters. The stable reporter cell lines also encode the firefly luciferase reporter, whose expression is regulated by five copies of the GAL4 binding site enhancer (UAS), along with the pol III-driven Renilla luciferase reporter.
A cell-based reporter assay was used to detect RORγt-mediated activity. This assay, called RORγt□ employed Drosophila Schneider cells that were stably transfected with two vectors: a gene expressing a fusion of the Gal4 DNA binding domain and RORγt transactivation domain under the control of the metallothionine promoter and a Photinus luciferase reporter regulated by the Gal4 binding site enhancer, UAS. […] Cells (600/well) were dispensed into white solid 1536-well plates (Greiner) using a solenoid-based dispenser. Following transfer of 23 nL compound or DMSO vehicle by a pin tool, the plates were incubated 1 hr at ambient temperature, and 1 uL/well copper sulfate (700 uM final concentration) was added. The plates were centrifuged 15 s at 1000 RPM and incubated 20 hr at ambient temperature. After addition of 1.5 uL Photinus luciferase detection reagent, the plates were incubated 10 min at ambient temperature and then read by a ViewLux (Perkin Elmer) to detect luminescence. […] Efficacy is expressed as % of the maximal response of control inhibitor (Digoxin), set at 100%.

As for `COc1cc(O)c(C(CC(=O)N2C[C@H](C)C[C@H](C)C2)c2ccc3c(c2)OCO3)c(OC)c1` (stereo partly drawn) [NCGC00238427], in assay [1] (multiple donors, IL-17a+IFN-γ+/−, p=0.02 (FIG. 7)), the “IL-17a expression in human memory Th17 cells” value was “inhibits human Th17 cell memory cells expression of IL-17a”. Besides, the “IL-17a−IFN-γ+ memory CD4+ T cells, with versus without compound” value in assay [1] (two-tailed unpaired Student's t test (FIG. 7)) is “not significant”. In assay [2], the “concentration at which human Th17 cell differentiation is inhibited” value was ≤ 1 µM.
On to `COc1cc(O)c(C(CC(=O)N2CC(C)CC(C)C2)c2ccc(O)cc2)c(OC)c1` (stereo not drawn) [Compound 75], for which the results for the half-maximal inhibitory concentration (IC50) at RORγt (setting [4]), against RORγt (setting [5]) and in the assay on mouse Th17 polarization were 1 to 10 µM, 1 to 10 µM and < 1 µM, respectively. In addition, the Emax on RORγt is 93.8%.
`COc1cc(O)c(C(CC(=O)N2CCCC(C)C2)c2ccc3c(c2)OCO3)c(OC)c1` (stereo not drawn) [NCGC00166547]: in the assay on mouse Th17 polarization (20 μM, compared to DMSO treated cells, FACS (FIG. 3)), the “mouse Th17 cell differentiation, as measured by IL17a production” value is “suppress mouse Th17 cell differentiation”. Besides, in the assay with Th1 differentiation, the “Th1 differentiation, as measured by IFNγ production” value is given as “does not inhibit Th1 differentiation”. Further, the “binding to human RORγt (displacement of fluorescently-labeled 25-hydroxycholesterol)” value in assay [3] was “directly bind to human RORγt”.
`COc1cc(O)c(C(CC(=O)N2CCCC(C)C2)c2ccccc2)c(OC)c1` (stereo not drawn) [Compound 61]: the IC50 (in general, the point on the concentration scale where inhibition reaches its midpoint) against RORγt (setting [4]) is 1 to 10 µM; at RORγt (setting [5]), 1 to 10 µM; in the assay with mouse Th17 polarization, > 20 µM. Also, the Emax on RORγt was 95.4%.
Turning to `COc1cc(O)c(C(CC(=O)N2CCCC(C)C2)c2ccccc2C)c(OC)c1` (stereo not drawn) [Compound 63], the IC50 against RORγt (setting [4]) was 1 to 10 µM; at RORγt (setting [5]), 1 to 10 µM; with mouse Th17 polarization it was > 20 µM. Moreover, the Emax at RORγt worked out at 93.5%.
`COc1cc(O)c(C(CC(=O)N2CC(C)CC(C)C2)c2ccc(N(C)C)cc2)c(OC)c1` (stereo not drawn) [Compound 72]: the figures for the IC50 on RORγt (setting [4]), on RORγt (setting [5]) and in the assay on mouse Th17 polarization were 1 to 10 µM, 1 to 10 µM and < 1 µM, respectively. The Emax at RORγt came to 96.8%.
On to `COc1cc(O)c(C(CC(=O)N2CC(C)NC(C)C2)c2ccc3c(c2)OCO3)c(OC)c1` (stereo not drawn) [Compound 42], for which the IC50 is > 50 µM on RORγt (setting [4]), > 20 µM on RORγt (setting [5]) and > 20 µM with mouse Th17 polarization.
Turning to `COCOc1cc(OC)cc(OC)c1C(CC(=O)N1CC(C)CC(C)C1)c1ccc2c(c1)OCO2` (stereo not drawn) [Compound 135], the IC50 against RORγt (setting [4]), on RORγt (setting [5]) and in the assay on mouse Th17 polarization was 1 to 10 µM each time. Besides, the Emax on RORγt worked out at 96.5%.
Take `COc1cc(OC)c(C(CC(=O)N2CC(C)CC(C)C2)c2ccc3c(c2)OCO3)c(OC)c1` (stereo not drawn) [Compound 134]: the results for the IC50 at RORγt (setting [4]), at RORγt (setting [5]) and with mouse Th17 polarization were 1 to 10 µM, 1 to 10 µM and < 1 µM, respectively. The Emax on RORγt amounted to 96.4%.
For the molecule `COc1cc(O)c([C@@H](CC(=O)N2CC(C)CC(C)C2)c2ccc3c(c2)OCO3)c(OC)c1` (single isomer, unassigned; (-)) [Compound 35], the Emax at RORγt was determined as 91%. Moreover, the IC50 in the assay on mouse Th17 polarization is < 1 µM.
As to `COc1ccc(C(CC(=O)N2CCCC(C)C2)c2c(O)cc(OC)cc2OC)cc1` (stereo not drawn) [Compound 60], the IC50 at RORγt (setting [4]), on RORγt (setting [5]) and in the assay on mouse Th17 polarization was 1 to 10 µM throughout. Further, on RORγt, the Emax amounted to 91.7%.
`COc1cc(OC)c(C(CC(=O)N2CC(C)CC(C)C2)c2ccc3c(c2)OCO3)c(OCC(N)=O)c1` (stereo not drawn) [Compound 137]: the concentration for half-maximal inhibition (IC50) against RORγt (setting [4]) is 11 to 50 µM; at RORγt (setting [5]), 11 to 20 µM; in the assay with mouse Th17 polarization, > 20 µM. In addition, the Emax at RORγt turned out to be 98.5%.
The corresponding values for `COc1ccc(C(CC(=O)N2CCCC(C)C2)c2c(O)cc(OC)cc2OC)c(OC)c1` (stereo not drawn) [Compound 69] are 11 to 50 µM, > 20 µM, > 20 µM and 45.6%.
Regarding `COc1cc(OC)c(C(CC(=O)N2CC(C)CC(C)C2)c2ccc3c(c2)OCO3)c(OCC#N)c1` (stereo not drawn) [Compound 136], the IC50 at RORγt (setting [4]), against RORγt (setting [5]) and in the assay with mouse Th17 polarization was 1 to 10 µM throughout. Moreover, at RORγt, the Emax turned out to be 90%.
